Measured values: ChEMBL document CHEMBL1140040, “Synthesis and cytotoxic activity of some novel polycyclic gamma-butyrolactones” (Bioorg Med Chem Lett, 2008)
Blank lines part the entries; values can stand above or below the compound they belong to.

Assays:
SF-295 [1] = assay: Cytotoxicity against human SF295 cells assessed as age growth inhibition at 50 uM after 48 hrs by sulforhodamine B assay; type: functional; settings: SF-295, 48 h, read-out: GI
SK-OV-3 [2] = assay: Cytotoxicity against human SKOV3 cells assessed as age growth inhibition at 100 uM after 48 hrs by sulforhodamine B assay; type: functional; settings: SK-OV-3, 48 h, read-out: GI
DU-145 [3] = assay: Cytotoxicity against human DU145 cells assessed as age growth inhibition at 10 uM after 48 hrs by sulforhodamine B assay; type: functional; settings: DU-145, 48 h, read-out: GI
HCT-15 [4] = assay: Antiproliferative activity against human HCT15 cells after 48 hrs by sulforhodamine B assay; type: functional, cell-based; settings: HCT-15, 48 h
HCT-15 [5] = assay: Cytotoxicity against human HCT15 cells assessed as age growth inhibition at 100 uM after 48 hrs by sulforhodamine B assay; type: functional; settings: HCT-15, 48 h, read-out: GI
SK-OV-3 [6] = assay: Cytotoxicity against human SKOV3 cells assessed as age growth inhibition at 50 uM after 48 hrs by sulforhodamine B assay; type: functional; settings: SK-OV-3, 48 h, read-out: GI
SF-295 [7] = assay: Cytotoxicity against human SF295 cells assessed as age growth inhibition at 10 uM after 48 hrs by sulforhodamine B assay; type: functional; settings: SF-295, 48 h, read-out: GI
HEp-2 [8] = assay: Cytotoxicity against human HEP2 cells assessed as age growth inhibition at 100 uM after 48 hrs by sulforhodamine B assay; type: functional; settings: HEp-2, 48 h, read-out: GI
HEp-2 [9] = assay: Antiproliferative activity against human HEP2 cells after 48 hrs by sulforhodamine B assay; type: functional, cell-based; settings: HEp-2, 48 h
IGROV-1 [10] = assay: Cytotoxicity against human IGROV1 cells assessed as age growth inhibition at 100 uM after 48 hrs by sulforhodamine B assay; type: functional; settings: IGROV-1, 48 h, read-out: GI
HOP-62 [11] = assay: Antiproliferative activity against human HOP62 cells after 48 hrs by sulforhodamine B assay; type: functional, cell-based; settings: HOP-62, 48 h
IGROV-1 [12] = assay: Cytotoxicity against human IGROV1 cells assessed as age growth inhibition at 10 uM after 48 hrs by sulforhodamine B assay; type: functional; settings: IGROV-1, 48 h, read-out: GI
SF-295 [13] = assay: Antiproliferative activity against human SF295 cells after 48 hrs by sulforhodamine B assay; type: functional, cell-based; settings: SF-295, 48 h
A549 [14] = assay: Cytotoxicity against human A549 cells assessed as age growth inhibition at 10 uM after 48 hrs by sulforhodamine B assay; type: functional; settings: A549, 48 h, read-out: GI
HOP-62 [15] = assay: Cytotoxicity against human HOP62 cells assessed as age growth inhibition at 100 uM after 48 hrs by sulforhodamine B assay; type: functional; settings: HOP-62, 48 h, read-out: GI
A549 [16] = assay: Cytotoxicity against human A549 cells assessed as age growth inhibition at 100 uM after 48 hrs by sulforhodamine B assay; type: functional; settings: A549, 48 h, read-out: GI
SK-OV-3 [17] = assay: Cytotoxicity against human SKOV3 cells assessed as age growth inhibition at 10 uM after 48 hrs by sulforhodamine B assay; type: functional; settings: SK-OV-3, 48 h, read-out: GI
IGROV-1 [18] = assay: Antiproliferative activity against human IGROV1 cells after 48 hrs by sulforhodamine B assay; type: functional, cell-based; settings: IGROV-1, 48 h
COLO 205 [19] = assay: Cytotoxicity against human COLO205 cells assessed as age growth inhibition at 50 uM after 48 hrs by sulforhodamine B assay; type: functional; settings: COLO 205, 48 h, read-out: GI
HCT-15 [20] = assay: Cytotoxicity against human HCT15 cells assessed as age growth inhibition at 10 uM after 48 hrs by sulforhodamine B assay; type: functional; settings: HCT-15, 48 h, read-out: GI
HEp-2 [21] = assay: Cytotoxicity against human HEP2 cells assessed as age growth inhibition at 50 uM after 48 hrs by sulforhodamine B assay; type: functional; settings: HEp-2, 48 h, read-out: GI
DU-145 [22] = assay: Cytotoxicity against human DU145 cells assessed as age growth inhibition at 50 uM after 48 hrs by sulforhodamine B assay; type: functional; settings: DU-145, 48 h, read-out: GI
IGROV-1 [23] = assay: Cytotoxicity against human IGROV1 cells assessed as age growth inhibition at 50 uM after 48 hrs by sulforhodamine B assay; type: functional; settings: IGROV-1, 48 h, read-out: GI
SF-295 [24] = assay: Cytotoxicity against human SF295 cells assessed as age growth inhibition at 100 uM after 48 hrs by sulforhodamine B assay; type: functional; settings: SF-295, 48 h, read-out: GI
SK-OV-3 [25] = assay: Antiproliferative activity against human SKOV3 cells after 48 hrs by sulforhodamine B assay; type: functional, cell-based; settings: SK-OV-3, 48 h
COLO 205 [26] = assay: Cytotoxicity against human COLO205 cells assessed as age growth inhibition at 10 uM after 48 hrs by sulforhodamine B assay; type: functional; settings: COLO 205, 48 h, read-out: GI
COLO 205 [27] = assay: Cytotoxicity against human COLO205 cells assessed as age growth inhibition at 100 uM after 48 hrs by sulforhodamine B assay; type: functional; settings: COLO 205, 48 h, read-out: GI
COLO 205 [28] = assay: Antiproliferative activity against human COLO205 cells after 48 hrs by sulforhodamine B assay; type: functional, cell-based; settings: COLO 205, 48 h
HOP-62 [29] = assay: Cytotoxicity against human HOP62 cells assessed as age growth inhibition at 50 uM after 48 hrs by sulforhodamine B assay; type: functional; settings: HOP-62, 48 h, read-out: GI
HCT-15 [30] = assay: Cytotoxicity against human HCT15 cells assessed as age growth inhibition at 50 uM after 48 hrs by sulforhodamine B assay; type: functional; settings: HCT-15, 48 h, read-out: GI
HEp-2 [31] = assay: Cytotoxicity against human HEP2 cells assessed as age growth inhibition at 10 uM after 48 hrs by sulforhodamine B assay; type: functional; settings: HEp-2, 48 h, read-out: GI
HOP-62 [32] = assay: Cytotoxicity against human HOP62 cells assessed as age growth inhibition at 10 uM after 48 hrs by sulforhodamine B assay; type: functional; settings: HOP-62, 48 h, read-out: GI
DU-145 [33] = assay: Antiproliferative activity against human DU145 cells after 48 hrs by sulforhodamine B assay; type: functional, cell-based; settings: DU-145, 48 h
A549 [34] = assay: Cytotoxicity against human A549 cells assessed as age growth inhibition at 50 uM after 48 hrs by sulforhodamine B assay; type: functional; settings: A549, 48 h, read-out: GI
A549 [35] = assay: Antiproliferative activity against human A549 cells after 48 hrs by sulforhodamine B assay; type: functional, cell-based; settings: A549, 48 h
DU-145 [36] = assay: Cytotoxicity against human DU145 cells assessed as age growth inhibition at 100 uM after 48 hrs by sulforhodamine B assay; type: functional; settings: DU-145, 48 h, read-out: GI

IC50 (HCT-15 [4]): > 100 µM
IC50 (SK-OV-3 [25]): > 100 µM
IC50 (COLO 205 [28]): > 100 µM
IC50 (DU-145 [33]): > 100 µM
IC50 (A549 [35]): > 100 µM
Structure (SMILES): CC1(C)CCC[C@@]2(C)C1=C[C@H]1C(=O)O[C@H](c3ccc(Cl)cc3)[C@H]12
inhibition of growth at 50 µM (SF-295 [1]): 23%
inhibition of growth at 100 µM (SK-OV-3 [2]): 24%
inhibition of growth at 10 µM (DU-145 [3]): 16%
inhibition of growth at 100 µM (HCT-15 [5]): 30%
inhibition of growth at 50 µM (SK-OV-3 [6]): 14%
inhibition of growth at 10 µM (SF-295 [7]): 20%
inhibition of growth at 100 µM (HEp-2 [8]): 18%
IC50 (HEp-2 [9]): > 100 µM
inhibition of growth at 100 µM (IGROV-1 [10]): 16%
IC50 (HOP-62 [11]): > 100 µM
inhibition of growth at 10 µM (IGROV-1 [12]): 1%
IC50 (SF-295 [13]): > 100 µM
inhibition of growth at 10 µM (A549 [14]): 10%
inhibition of growth at 100 µM (HOP-62 [15]): 38%
inhibition of growth at 100 µM (A549 [16]): 20%
inhibition of growth at 10 µM (SK-OV-3 [17]): 10%
IC50 (IGROV-1 [18]): > 100 µM
inhibition of growth at 50 µM (COLO 205 [19]): 24%
inhibition of growth at 10 µM (HCT-15 [20]): 9%
inhibition of growth at 50 µM (HEp-2 [21]): 18%
inhibition of growth at 50 µM (DU-145 [22]): 30%
inhibition of growth at 50 µM (IGROV-1 [23]): 15%
inhibition of growth at 100 µM (SF-295 [24]): 31%
inhibition of growth at 10 µM (COLO 205 [26]): 22%
inhibition of growth at 100 µM (COLO 205 [27]): 25%
inhibition of growth at 50 µM (HOP-62 [29]): 29%
inhibition of growth at 50 µM (HCT-15 [30]): 29%
inhibition of growth at 10 µM (HEp-2 [31]): 8%
inhibition of growth at 10 µM (HOP-62 [32]): 27%
inhibition of growth at 50 µM (A549 [34]): 12%
inhibition of growth at 100 µM (DU-145 [36]): 35%

IC50 (HCT-15 [4]): > 100 µM
IC50 (SK-OV-3 [25]): > 100 µM
IC50 (COLO 205 [28]): > 100 µM
IC50 (DU-145 [33]): > 100 µM
IC50 (A549 [35]): 79.3 µM
Structure (SMILES): CC1(C)CCC[C@@]2(C)C1=C[C@H]1C(=O)O[C@H](c3ccc(F)cc3)[C@H]12
inhibition of growth at 50 µM (SF-295 [1]): 10%
inhibition of growth at 100 µM (SK-OV-3 [2]): 41%
inhibition of growth at 10 µM (DU-145 [3]): 0%
inhibition of growth at 100 µM (HCT-15 [5]): 38%
inhibition of growth at 50 µM (SK-OV-3 [6]): 13%
inhibition of growth at 10 µM (SF-295 [7]): 4%
inhibition of growth at 100 µM (HEp-2 [8]): 23%
IC50 (HEp-2 [9]): > 100 µM
inhibition of growth at 100 µM (IGROV-1 [10]): 29%
IC50 (HOP-62 [11]): > 100 µM
inhibition of growth at 10 µM (IGROV-1 [12]): 7%
IC50 (SF-295 [13]): > 100 µM
inhibition of growth at 10 µM (A549 [14]): 2%
inhibition of growth at 100 µM (HOP-62 [15]): 27%
inhibition of growth at 100 µM (A549 [16]): 51%
inhibition of growth at 10 µM (SK-OV-3 [17]): 6%
IC50 (IGROV-1 [18]): > 100 µM
inhibition of growth at 50 µM (COLO 205 [19]): 26%
inhibition of growth at 10 µM (HCT-15 [20]): 13%
inhibition of growth at 50 µM (HEp-2 [21]): 13%
inhibition of growth at 50 µM (DU-145 [22]): 0%
inhibition of growth at 50 µM (IGROV-1 [23]): 20%
inhibition of growth at 100 µM (SF-295 [24]): 15%
inhibition of growth at 10 µM (COLO 205 [26]): 11%
inhibition of growth at 100 µM (COLO 205 [27]): 32%
inhibition of growth at 50 µM (HOP-62 [29]): 14%
inhibition of growth at 50 µM (HCT-15 [30]): 34%
inhibition of growth at 10 µM (HEp-2 [31]): 7%
inhibition of growth at 10 µM (HOP-62 [32]): 9%
inhibition of growth at 50 µM (A549 [34]): 45%
inhibition of growth at 100 µM (DU-145 [36]): 35%
